According to patent US12433876B2, “Septin inhibitors for treatment of cancers” (UNIVERSITY OF ROCHESTER, priority 2019, dated 2025):

Tests used:
[1] = test system: actin; test: Confocal analysis of actin filaments (Phalloidin-TRITC); format: cell-based; settings: PANC-1 and JIMT1 cells, for 48 hours
[2] = target: septin-6 (Homo sapiens, UniProt Q14141); test: Confocal analysis of septin-6; format: cell-based; settings: SKOV-3, 1 μM, 48 hours
[3] = test system: HER2+ PANC-1 xenograft; test: PANC-1 xenograft tumor growth; format: in vivo, NSG mice; settings: 25 mg/kg IP, 52 days; p<0.0001
From the text: Cell Cycle Protein Expression. Cell Cycle Antibody Array (FullMoon BioSystems Inc, catalogue number: ACC:058), a high throughput ELISA based antibody array, designed for qualitative/semi-quantitative protein expression profiling was employed to investigate the protein changes after drug treatment. PANC-1 cells were lysed in buffer containing protease and phosphatase inhibitors (Cell Signaling, catalog number: 9803S). Total protein content was quantified by Bradford assay and equal amounts of proteins were analyzed in duplicate with arrays containing 4 to 6 spots for each of 60 probes (ACC058, Cell Cycle Antibody Array; Full Moon Biosystems, Sunnyvale, Calif.), according to manufacturer's instructions. After background correction, mean signal intensities were measured using FullMoon Inc's imaging services. Protein expressions in both the naïve and 328 treatment group was normalized to GAPDH signals. Confocal Analysis of Septin Disarrangement. To determine the impact of UR214-9 treatment on Septin-2 structure in cells, PANC-1 or JIMT-1 cells were seeded on glass slides and allowed to adhere overnight. The media was replaced with complete DMEM media supplemented with DMSO or UR214-9 (1 μM and 70 nM) and cells were incubated for 48 hours. […] The cells were stained with fluorescence linked secondary antibody for 1 hr under dark. […] Five cells were outlined and analyzed per field. […]

Sequence of septin-6 (Q14141 whole entry): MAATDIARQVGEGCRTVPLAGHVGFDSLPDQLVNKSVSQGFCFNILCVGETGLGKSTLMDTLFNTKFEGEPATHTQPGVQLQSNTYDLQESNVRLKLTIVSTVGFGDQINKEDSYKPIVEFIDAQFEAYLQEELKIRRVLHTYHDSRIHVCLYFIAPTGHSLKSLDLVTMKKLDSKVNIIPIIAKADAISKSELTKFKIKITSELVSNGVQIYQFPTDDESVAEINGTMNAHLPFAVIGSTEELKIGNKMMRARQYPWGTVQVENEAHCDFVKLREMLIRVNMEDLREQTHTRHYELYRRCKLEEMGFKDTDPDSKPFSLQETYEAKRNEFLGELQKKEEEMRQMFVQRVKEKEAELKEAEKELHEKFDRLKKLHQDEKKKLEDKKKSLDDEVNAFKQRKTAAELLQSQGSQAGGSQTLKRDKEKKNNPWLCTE

septin-6 (confocal) [2]: decreased upon treatment
Structure (SMILES): O=C(Nc1cc(Cl)nc(Cl)c1)Nc1cccc(SC(F)(F)F)c1F [UR214-9]
actin filaments [1]: actin filament disruption
xenograft tumor growth [3]: significantly delayed growth
